Entries after “also recorded” stand apart in the source; their conditions may differ.
Columns and labels:
[1] = target: T1, Snake venom PLA2 (Agkistrodon piscivorus piscivorus) (Agkistrodon piscivorus piscivorus, UniProt P51972); assay: PLA2-controlled release of calcein across non-hydrolysable D-O-SPC target membrane (carrier liposomes or micelles); format: biochemical; conditions: carrier liposomes 25 μM; 25 nM PLA2; 37° C.; FIG. 12a
T1 construct: Purified snake-venom phospholipase A2; from tissue
T1 sequence (P51972 1-123): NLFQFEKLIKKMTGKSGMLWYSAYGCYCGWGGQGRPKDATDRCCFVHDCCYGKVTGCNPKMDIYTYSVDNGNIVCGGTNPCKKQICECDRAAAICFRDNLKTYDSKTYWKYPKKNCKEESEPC
Procedure: Multilamellar model membrane target liposomes were made in the presence of fluorescent calcein in a self-quenching concentration of 20 mM by hydrating a film of 1,2-O-dioctadecyl-sn-glycero-3-phosphatidylcholines (D-O-SPC) in a HEPES buffer solution at pH=7.5 for one hour at 10° C. above the phase transition temperature (Tm=55° C.). […] The unilamellar liposomes were rapidly cooled to a temperature below the transition temperature, and the calcein-containing liposomes were separated from free calcein using a chromatographic column packed with Sephadex G-50. […] Calcein release from the target liposomes is determined by measuring the fluorescent intensity at 520 nm after excitation at 492 nm.
Unilamellar liposomes were made by extruding the multilamellar liposomes ten times through two stacked 100 nm polycarbonate filters.

[2] = test system: human red blood cells (RBC); assay: Hemolysis assay; conditions: 37° C., 20 hours, FIG. 6
Procedure: Briefly, each sample was serially diluted with phosphate buffered saline (PBS), and 0.5 ml of each dilute suspension was mixed with 0.5 ml washed human red blood cells (RBC) [4% in PBS (v/v)]. Sample and standard were placed in a 37° C. incubator and agitated for 20 hours. Tubes were centrifuged at low speed (2000×G) for 10 minutes and 200 μl of the supernatant was quantitated by absorbance at 550 nm. 100 percent hemolysis was defined as the maximum amount of hemolysis obtained from the detergent Triton X-100.
The lipids were hydrated in phosphate buffered saline (PBS). 1-O-octadecyl-2-O-methyl-sn-glycero-3-phosphocholine (ET-18-OCH3) in PBS was included in the assay as a reference.
Briefly, each sample was serially diluted with PBS, and 0.5 ml of each dilute suspension of 1-O-DPPC liposomes were mixed with 0.5 ml washed human red blood cells (RBC) [4% in PBS (v/v)]. For controls, 0.5 ml of the red blood cell suspension was mixed with either 0.5 ml buffer solution (negative hemolysis control) or 0.5 ml water (positive hemolysis control). Samples and standard were placed in a 37° C. incubator and agitated for 20 hours. Tubes were centrifuged at low speed (2000×G) for 10 minutes to form RBCs pellets. 200 μl of the supernatant was quantitated by absorbance at 550 nm using a Perkin-Elmer 320 scanning spectrophotometer. […]

[3] = i.v., 50 mg/kg
Procedure: Groups of mice (n=5/group; weight 18-22 g) were treated i.v. with buffer (PBS), ET-18-OCH3 (50 mg/kg), and liposomes composed of 1-O-DPPC with 5 mol % 1-O-DPPE-PEG2000 (68.7 and 137.5 mg/kg). 30 min after injection, 100 μl blood was collected into heparinised tubes directly from decapitated, CO2-anesthetised mice. The blood was centrifuged at 500×G for 10 min, and plasma was removed and stored at −20° C. until analysed.
25 μl plasma was mixed with 2,5 ml PBS or 2.5 ml 10% triton X-100.

[4] = target: T2, phospholipase A2 (A. piscivorus piscivorus) (Agkistrodon piscivorus piscivorus, UniProt P51972); conditions: 0.150 mM micelles, 150 nM PLA2, 45° C.
T2 sequence (P51972 1-123): T1 sequence (P51972 1-123)
Procedure: The hydrolysis of micelles composed DSPE-PEG750 was followed by analysis of the amount of stearic acid generated. The catalytic reaction was initiated by adding 8.9 μL of a 42 μM PLA2 (150 nM) stock solution to 2.5 ml a thermostated micelle suspension of DSPE-PEG750 (0.150 mM) equilibrated at 45° C. for 600 seconds prior to addition of PLA2. The characteristic burst behaviour of PLA2 towards the micelles is signalled by a sudden increase in the intrinsic fluorescence from PLA2 at 340 nm after excitation at 285 nm followed by a concomitant decrease in the 90° light scattering from the lipid suspension (Hønger et al., Biochemistry 35, 9003-9006). Samples for HPLC analysis of the amount of stearic acid generated were taken before adding PLA2 and 100 sec after the observed lag-time. […] HPLC analysis was made using a 5 μm diol column, a mobile phase composed of chloroform/methanol/water (730:230:30, v/v) and an evaporative light scattering detector (see example 2).

[5] = Calcein release across target membrane on adding lyso-phospholipid and fatty acid, in the absence of PLA2; conditions: target membranes 25 μM; 39° C.; pH 7.5; FIG. 13
Procedure: Total release after 20 min of the fluorescent model drug and/or contrast agent calcein across the target membrane as a function of adding increasing amounts of lyso-palmitoyl phospholipid and palmitic acid, separately, and in a 1:1 mixture. The concentration of the target membranes is 25 μM in a HEPES buffer with pH=7.5 at a temperature of 39° C.
The experimental model system consists of bare liposomes, polymer-coated liposome carrier and a model target membrane. The carrier is a 100 nm unilamellar liposome made of dipalmitoyl phosphatidylcholine lipids (DPPC) with 2.5 mol % lipopolymer of the type dipalmitoyl phosphatidylethanolamine (DPPE)-PEG2000. The target membrane is another liposome made of 1,2-O-dioctadecyl-sn-glycero-phosphatidylcholine (D-O-SPC) which is a phospholipid where the acyl linkages of the stearoyl chains are ether bonds. In contrast to DPPC, D-O-SPC is inert towards PLA2-catalysed hydrolysis thereby mimicking the stability of an intact target cell membrane toward degradation by its own enzymes. […] The permeation of calcein across the D-O-SPC target membrane is subsequently monitored by the increase in fluorescence. […]

[6] = test system: extracellular PLA2; assay: Effect of cholesterol incorporated into liposomes on extracellular PLA2 activity (data not shown); format: biochemical
Text: Short-chain phospholipids, such as didecanoyl phosphatidylcholine (DCPC), activate extracellular PLA2.

CCCCCCCCCC(=O)OC[C@H](COP(=O)([O-])OCC[N+](C)(C)C)OC(=O)CCCCCCCCC [DCPC, didecanoyl phosphatidylcholine]
rate of calcein release across target membrane versus bare DPPC carriers [1]: very fast; also recorded: further augmentation of the rate of release

CCCCCCCCCCCCCCCCCCOC[C@H](COP(=O)([O-])OCC[N+](C)(C)C)OC [ET-18-OCH3]
hemolysis at low concentrations [2]: significant degree of hemolysis
outcome of treated mice (in words) [3]: died within the 30 minutes period

di-octadecanoyl-sn-glycero-3-phosphoethanolamine-N-[methoxy(polyethylene glycol)-750 [DSPE-PEG750]
percentage hydrolysis of DSPE-PEG750 to lyso-SPE-PEG750 and stearic acid ([4]; 100 sec after lag-time): 100%
observed lag time [4]: 10 s

CCCCCCCCCCCCCCCC(=O)O [fatty acid, palmitic acid]
rate of calcein release across target membrane in the absence of PLA2 [5]: increased rate of calcein release

CC(C)CCC[C@@H](C)[C@H]1CC[C@H]2[C@@H]3CC=C4C[C@@H](O)CC[C@]4(C)[C@H]3CC[C@]12C [cholesterol]
effect on extracellular PLA2 ([6]; large amount (≈20 mol %) incorporated into liposomes): deactivated
effect on extracellular PLA2 ([6]; small amount (≈3 mol %)): activates
